Results on one compound are retold here after US9241497B2, “Method and apparatus for treatment of food products” (The United States of America, as represented by the …, priority 2005, dated 2016).

Holding throughout (assay type): cell-based, Listeria monocytogenes
Assay [1] concerns L. monocytogenes. The assay can be described thus: Shelf-life studies: outgrowth on hams during refrigerated storage up to 60 days. The note with it: for reduction of pathogen levels relative to untreated samples: after 24 h at 4° C.; for levels of L. monocytogenes compared to untreated control hams (statistical analyses): all volumes tested. An excerpt:
(§1) Bacterial Strains: Using a procedure described previously (Porto, A. C. S., et al., Journal of Food Protection, 65: 308-315 (2002)), approximately equal numbers of each of the following five strains of L. monocytogenes were used as a cocktail in this study: (i) Scott A (serotype 4b, clinical isolate); (ii) H7776 (serotype 4b, frankfurter isolate); (iii) LM-101M (serotype-4b, beef and pork sausage isolate); (iv) F6854 (serotype 1/2a, turkey frankfurter isolate); and (v) MFS-2 (serotype 1/2a, environmental isolate from a pork processing plant). For each experiment isolates were passed twice in brain heart infusion (BHI; Difco Laboratories, Detroit, Mich.) broth at 37° C. so that cells would be in the stationary phase for inoculating hams. Stock cultures were maintained by storage in BHI plus 10% (wt/vol) glycerol in 1.5-ml portions in cryovials and held at −80° C.
Shelf-Life Studies: To evaluate the efficacy of ACS and LAE over the expected refrigerated shelf life of the product, a fresh batch of the same formulation of hams was obtained from the same commercial manufacturer as described previously. For these studies, hams were spot inoculated with 2 mL of the L. monocytogenes cocktail to achieve a target level of either 3.0 or 7.0 log10 CFU per ham. At each inoculation level one portion of the hams was transferred to shrink-wrap bags that were previously sprayed on the inside with 4, 6, or 8 mL of a 1:2 solution of ACS applied using a commercial spraying apparatus (AutoJet Spray System #45570-22-10-120V, Spraying Systems Co., Wheaton, Ill.) and commercial bagging apparatus (Taped Bag Loader #BL189, Cryovac). An otherwise similar portion of the inoculated hams was transferred to shrink-wrap bags that just prior to introduction of the hams were sprayed with 4, 6, or 8 mL of a 5% LAE solution using the commercial spraying and bagging apparatus. Control hams were also spot inoculated with either 3.0 or 7.0 log10 CFU of L. monocytogenes per ham and were transferred to shrink-wrap bags that were not sprayed with either compound. As described previously, hams were vacuum-sealed, submerged in hot (88° C.) water, and stored at 4° C. Hams were analyzed 1, 7, 14, 21, 28, 40, and, 60 days post-inoculation. For each of two trials, three hams were analyzed at each sampling point for both inoculation levels and for both chemicals tested.
(§2) Microbiological Analyses: Surviving L. monocytogenes were enumerated using the USDA/ARS package rinse method (Luchansky J. B., et al., Journal of Food Protection, 65: 567-570 (2002)) and spread-plating 250 uL of the resulting rinse fluid or dilutions thereof onto duplicate modified Oxford agar plates (MOX; Cook, L. V., Isolation and identification of Listeria monocytogenes from red meat, poultry, egg, and environmental samples, Chapter 8, In: USDA/FSIS Microbiology Laboratory Guidebook (3rd ed., Revision 2), Washington, D.C. (1999)) using a sterile cell spreader and incubating for 48 h at 37° C. Listeria numbers were expressed as log10 CFU per ham with each package containing a single ham; the detection limit was 1.48 log10 CFU/ham. Periodically, isolates were retained from randomly selected samples and confirmed as L. monocytogenes following the recommended/standard USDA/FSIS protocol (Cook, 1999).

The subject of assay [2] is L. monocytogenes. Briefly: Lethality studies: ACS and LAE sprayed into shrink-wrap bags, inoculated hams, 24 h at 4° C. The note with it: ca. 7.0 log10 CFU per ham.
From the text: as §1
Lethality Studies: To evaluate the lethality of acidic calcium sulfate (ACS; Safe2O-RTE 01, Mionix Corp., Naperville, Ill.) and lauramide arginine ester (LAE; Ethyl-N-dodecanoyl-L-arginate hydrochloride; CAS No. 60372-77-2; Mirenat-N, Vedeqsa, Barcelona, Spain; also known as lauric arginate), “table brown” hams (water, ground ham trims, brine, dextrose, sugar, sodium phosphate, sodium erythorbate, and sodium nitrite; ca. 3 pounds each ham) were processed and vacuum-sealed by a commercial processor (Hatfield Quality Meats, Hatfield, Pa.). The hams were boxed, transported back to the laboratory, and stored at 4° C. for up to 7 days. Each ham was aseptically removed from its original packaging, spot inoculated with 2 mL of the cocktail using a pipette to achieve a target level of ca. 7.0 log10 CFU per ham, and then transferred to a high-performance shrink-wrap bag (B2570T, Cryovac, Duncan, S.C.). Just prior to introducing the hams, the inside of each shrink-wrap bag was sprayed with 0, 2, 4, 6, or 8 mL of either a 1:1 (1 part ACS: 1 part dH2O) or 1:2 (1 part ACS:2 parts dH2O) solution of ACS or a 5% (5 parts LAE:95 parts dH2O) or 10% (10 parts LAE:90 parts dH2O) solution of LAE. The antimicrobials for these experiments were introduced via a 24-ounce plastic spray bottle (Koch Supplies, Kansas City, Mo.). Each bag was then vacuum sealed to 950 mBar using a Multivac A300/16 vacuum-packaging unit (Sepp Haggemüller K G, Wolfertschwenden, Germany), submerged in hot (88° C.) water for approximately 5 seconds to shrink the bag, and transferred to a 4° C. incubator and held for 24 h. In a single trial, three hams were analyzed for each concentration and volume of ACS and LAE tested after 24 h of refrigerated storage.
as §2, with “Periodically, isolates were retained from randomly selected samples and confirmed as L. monocytogenes following the recommended/standard USDA/FSIS protocol (Cook, 1999).” left out

For assay [3], the system named is L. monocytogenes. Briefly: Validation studies of initial post-process lethality on hams. The note with it: for average decrease in pathogen levels compared to untreated control hams: ca. 7.0 log10 CFU per ham, after 24 h at 4° C.
From the text: as §1
Validation Studies: To validate the initial post-process lethality of ACS and LAE, a fresh batch of the same formulation of hams was obtained from the same commercial manufacturer as described previously. The hams were spot inoculated with 2 mL of the L. monocytogenes cocktail to achieve a target level of ca. 7.0 log10 CFU per ham, transferred to shrink-wrap bags (Cryovac) that were previously sprayed on the inside with 0, 2.5, 4.5, or 6.5 mL of a 1:2 solution of ACS or a 5% solution of LAE, vacuum sealed, submerged in hot (88° C.) water, and placed at 4° C. In each of three trials, three hams were analyzed at each concentration and volume of ACS and LAE tested after 24 h of refrigerated storage.
as §2

With `CCCCCCCCCCCC(=O)N[C@@H](CCCNC(=N)N)C(=O)OCC.Cl` [LAE, Ethyl-N-dodecanoyl-L-arginate hydrochloride], the “levels of the pathogen within 24 h” value in the assay on L. monocytogenes [1] (4, 6, and 8 mL of 5% solution of LAE, inoculum ca. 3.0 log10 CFU/ham, 4° C., detection limit 1.48 log10 CFU/ham) is on record as “below the limit of detection”. The “increase of L. monocytogenes levels after 60 days” value in the assay on L. monocytogenes [1] (4 and 6 mL of 5% LAE solution, inoculum ca. 3.0 log10 CFU/ham, 4° C.) is “ca. 2.0 log10 CFU/ham”. Also, the “increase of pathogen levels thereafter (after 24 h) within 60 days” value was “ca. 4.6 log10 CFU/ham” with L. monocytogenes [1] (4 mL of 5% solution of LAE, inoculum ca. 7.0 log10 CFU/ham, 4° C.); roughly 3.0 log10 CFU/ham in the assay with L. monocytogenes [1] (6 mL of 5% solution of LAE, inoculum ca. 7.0 log10 CFU/ham, 4° C.); roughly 2.0 log10 CFU/ham in the assay with L. monocytogenes [1] (8 mL of 5% solution of LAE, inoculum ca. 7.0 log10 CFU/ham, 4° C.). In addition, the “reduction of pathogen levels relative to untreated samples” value in the assay on L. monocytogenes [1] (4 mL of 5% solution of LAE, inoculum ca. 7.0 log10 CFU/ham) is listed as roughly 5.1 log10 CFU/ham; with L. monocytogenes [1] (6 mL of 5% solution of LAE, inoculum ca. 7.0 log10 CFU/ham), roughly 5.4 log10 CFU/ham; with L. monocytogenes [1] (8 mL of 5% solution of LAE, inoculum ca. 7.0 log10 CFU/ham), roughly 5.5 log10 CFU/ham. In addition, the “levels of L. monocytogenes after 60 days” value in the assay on L. monocytogenes [1] (8 mL of 5% LAE solution, inoculum ca. 3.0 log10 CFU/ham, 4° C., detection limit 1.48 log10 CFU/ham) is recorded as “remained below the detection limit”. In addition, the “duration of control of further outgrowth of L. monocytogenes” value with L. monocytogenes [1] (initial inoculum of ca. 7.0 log10 CFU/ham, refrigerated storage) was no less than 28 days. In addition, the “levels of L. monocytogenes compared to untreated control hams (statistical analyses)” value in the assay with L. monocytogenes [1] (inoculum ca. 3.0 log10 CFU/ham, day 1 through day 40) was “appreciably lower”; with L. monocytogenes [1] (inoculum ca. 7.0 log10 CFU/ham, day 1 through day 60) it was “appreciably lower”. The “decrease in L. monocytogenes levels” value is listed as “ca. 3.3 log10 CFU/ham” in the assay with L. monocytogenes [2] (2 mL of 5% solution of LAE), “ca. 6.5 log10 CFU/ham” with L. monocytogenes [2] (4 mL of 5% solution of LAE), roughly 5.6 log10 CFU/ham in the assay with L. monocytogenes [2] (6 mL of 5% solution of LAE) and “ca. 6.5 log10 CFU/ham” in the assay on L. monocytogenes [2] (8 mL of 5% solution of LAE). Further, in the assay on L. monocytogenes [2] (10% solution of LAE, all 4 application volumes (2, 4, 6, 8 mL)), the “decrease in pathogen levels” value is on record as “ca. 6.5 log10 CFU/ham”. Also, the “average decrease in pathogen levels compared to untreated control hams” value is given as “ca. 4.6 log10 CFU/ham” with L. monocytogenes [3] (2.5 mL of 5% solution of LAE), roughly 5.9 log10 CFU/ham in the assay with L. monocytogenes [3] (4.5 mL of 5% solution of LAE) and roughly 6.1 log10 CFU/ham with L. monocytogenes [3] (6.5 mL of 5% solution of LAE). Besides, the “reduction of levels of L. monocytogenes on the surface of hams (conclusion)” value with L. monocytogenes [3] (5% solution of LAE, within 24 h at 4° C.) is reported as “at least 5.0 log10 CFU/ham”.
